Measured values from patent US10513521B2, “Compositions and methods for inhibiting BMP” (The Brigham and Women's Hospital, Inc., priority 2014, dated 2019).

Experiments:
[1] = target: ALK1 (Homo sapiens, UniProt P37023); test: TR-FRET enzymatic ALK kinase assay, ALK1
Experimental: (§1) Briefly, the ALKs enzymatic assay was initiated by dispense 2.5 μl enzyme in 1× kinase reaction buffer. The assay plate was then added with compounds followed by incubation at room temperature for 10 minutes. Then 2.5 μl/well substrate was added.

[2] = target: T1, ALK2 (Homo sapiens, UniProt Q04771); test: TR-FRET enzymatic ALK kinase assay, ALK2
T1 sequence (Q04771 21-509): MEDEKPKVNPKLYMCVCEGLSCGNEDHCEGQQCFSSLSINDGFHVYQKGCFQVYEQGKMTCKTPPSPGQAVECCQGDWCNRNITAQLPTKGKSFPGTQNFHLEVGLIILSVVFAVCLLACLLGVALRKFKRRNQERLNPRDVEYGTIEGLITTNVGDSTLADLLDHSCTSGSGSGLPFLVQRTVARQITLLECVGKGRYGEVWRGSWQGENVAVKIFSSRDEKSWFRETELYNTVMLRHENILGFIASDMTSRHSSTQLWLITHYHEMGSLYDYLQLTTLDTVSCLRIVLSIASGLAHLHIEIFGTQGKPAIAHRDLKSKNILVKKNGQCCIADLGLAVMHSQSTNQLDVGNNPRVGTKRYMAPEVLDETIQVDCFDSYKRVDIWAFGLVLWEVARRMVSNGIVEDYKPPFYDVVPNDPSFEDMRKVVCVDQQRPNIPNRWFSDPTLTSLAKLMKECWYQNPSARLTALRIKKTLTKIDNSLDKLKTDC
Experimental: as §1

[3] = target: ALK3 (Homo sapiens, UniProt P36894); test: TR-FRET enzymatic ALK kinase assay, ALK3
Experimental: as §1

[4] = target: T2, ALK4 (Homo sapiens, UniProt P36896); test: TR-FRET enzymatic ALK kinase assay, ALK4
T2 sequence (P36896 24-505): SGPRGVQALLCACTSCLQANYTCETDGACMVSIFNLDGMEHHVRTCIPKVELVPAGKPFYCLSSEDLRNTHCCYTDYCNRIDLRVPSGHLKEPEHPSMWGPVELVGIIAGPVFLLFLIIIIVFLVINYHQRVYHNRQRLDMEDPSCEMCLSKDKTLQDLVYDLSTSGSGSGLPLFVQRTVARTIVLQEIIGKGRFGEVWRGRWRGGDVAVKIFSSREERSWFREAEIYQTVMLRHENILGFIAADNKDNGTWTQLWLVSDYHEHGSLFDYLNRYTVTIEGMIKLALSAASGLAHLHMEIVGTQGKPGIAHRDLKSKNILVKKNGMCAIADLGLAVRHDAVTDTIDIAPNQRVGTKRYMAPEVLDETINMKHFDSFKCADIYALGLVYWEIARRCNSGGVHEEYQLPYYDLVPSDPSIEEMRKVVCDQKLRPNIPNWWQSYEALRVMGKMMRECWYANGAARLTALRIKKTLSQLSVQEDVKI
Experimental: as §1

[5] = target: T3, ALK5 (Homo sapiens, UniProt P36897); test: TR-FRET enzymatic ALK kinase assay, ALK5
T3 sequence (P36897 34-503): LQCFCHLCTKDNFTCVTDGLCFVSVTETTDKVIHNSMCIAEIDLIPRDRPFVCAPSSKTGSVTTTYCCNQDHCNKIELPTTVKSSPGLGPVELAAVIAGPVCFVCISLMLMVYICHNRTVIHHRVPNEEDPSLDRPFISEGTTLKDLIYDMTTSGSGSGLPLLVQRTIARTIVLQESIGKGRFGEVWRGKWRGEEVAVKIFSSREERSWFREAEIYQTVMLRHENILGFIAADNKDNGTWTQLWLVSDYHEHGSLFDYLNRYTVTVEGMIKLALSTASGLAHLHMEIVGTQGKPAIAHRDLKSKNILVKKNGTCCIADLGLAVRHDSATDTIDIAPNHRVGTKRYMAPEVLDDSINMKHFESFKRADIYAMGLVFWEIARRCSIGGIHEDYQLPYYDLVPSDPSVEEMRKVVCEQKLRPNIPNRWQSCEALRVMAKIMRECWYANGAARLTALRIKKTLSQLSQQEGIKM
Experimental: Six ALK kinase enzyme assays were developed for determination of compound activities on ALK1, ALK2, ALK3, ALK4, ALK5 and ALK6.
as §1

[6] = target: ALK6 (Homo sapiens, UniProt O00238); test: TR-FRET enzymatic ALK kinase assay, ALK6
ALK6, sequence (O00238 14-502): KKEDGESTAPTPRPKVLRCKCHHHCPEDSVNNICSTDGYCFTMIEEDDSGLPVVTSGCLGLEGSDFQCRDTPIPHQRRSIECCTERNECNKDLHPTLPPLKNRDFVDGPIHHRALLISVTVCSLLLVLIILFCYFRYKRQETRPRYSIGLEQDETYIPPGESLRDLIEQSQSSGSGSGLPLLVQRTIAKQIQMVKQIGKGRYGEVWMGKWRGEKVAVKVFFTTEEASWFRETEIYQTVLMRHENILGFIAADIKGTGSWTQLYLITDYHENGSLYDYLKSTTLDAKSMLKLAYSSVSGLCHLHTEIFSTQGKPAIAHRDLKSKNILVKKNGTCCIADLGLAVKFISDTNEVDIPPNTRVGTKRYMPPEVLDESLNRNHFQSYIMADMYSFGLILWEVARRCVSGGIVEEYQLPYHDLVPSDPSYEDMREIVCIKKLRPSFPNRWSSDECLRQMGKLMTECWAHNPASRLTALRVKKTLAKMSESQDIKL
Experimental: as §1

ALK3, sequence (P36894 24-532): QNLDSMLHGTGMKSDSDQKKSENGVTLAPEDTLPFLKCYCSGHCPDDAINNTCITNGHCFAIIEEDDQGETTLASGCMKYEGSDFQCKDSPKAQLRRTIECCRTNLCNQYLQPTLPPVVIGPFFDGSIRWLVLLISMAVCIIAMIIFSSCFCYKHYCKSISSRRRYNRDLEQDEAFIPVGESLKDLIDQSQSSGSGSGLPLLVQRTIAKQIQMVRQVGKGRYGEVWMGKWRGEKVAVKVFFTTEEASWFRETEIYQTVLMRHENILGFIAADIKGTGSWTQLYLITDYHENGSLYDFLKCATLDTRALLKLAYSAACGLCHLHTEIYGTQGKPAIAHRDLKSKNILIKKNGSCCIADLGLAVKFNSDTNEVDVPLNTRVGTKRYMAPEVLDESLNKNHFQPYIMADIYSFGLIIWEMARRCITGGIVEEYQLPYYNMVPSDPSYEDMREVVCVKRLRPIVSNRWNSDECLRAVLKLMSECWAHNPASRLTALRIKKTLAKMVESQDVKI
ALK1, sequence (P37023 22-503): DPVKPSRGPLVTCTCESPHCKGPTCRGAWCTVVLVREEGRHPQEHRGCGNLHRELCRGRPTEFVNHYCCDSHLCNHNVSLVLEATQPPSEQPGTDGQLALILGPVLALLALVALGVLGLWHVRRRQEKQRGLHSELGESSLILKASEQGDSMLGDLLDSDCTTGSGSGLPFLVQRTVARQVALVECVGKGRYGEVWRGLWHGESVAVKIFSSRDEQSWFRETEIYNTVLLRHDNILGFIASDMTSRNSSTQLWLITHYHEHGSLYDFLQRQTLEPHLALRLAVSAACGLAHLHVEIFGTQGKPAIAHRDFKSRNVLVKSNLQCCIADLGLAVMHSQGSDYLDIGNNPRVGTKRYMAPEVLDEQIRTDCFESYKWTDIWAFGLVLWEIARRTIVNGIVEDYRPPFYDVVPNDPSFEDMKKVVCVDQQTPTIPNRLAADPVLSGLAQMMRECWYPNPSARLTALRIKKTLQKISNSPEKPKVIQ

SMILES | IC50 [1] [µM] | IC50 [2] [µM] | IC50 [3] [µM] | IC50 [4] [µM] | IC50 [5] [µM] | IC50 [6] [µM]
NC(c1ccc(-c2cnn3cc(-c4ccc(OCCN5CCCCC5)cc4)cnc23)cc1)C(F)(F)F (stereo not drawn) [Compound 144, 2,2,2-trifluoro-1-(4-(6-(4-(2-(piperidin-1-yl)ethoxy)phenyl)pyrazolo[1,5-a]pyrimidin-3-yl)phenyl)ethanamine] | > 10 | > 10 | > 10 | > 10 | > 10 | > 10
CC(O)c1cccc(-c2cnn3cc(-c4ccc(OCCN5CCCC5)cc4)cnc23)c1 (stereo not drawn) [Compound 145, 1-(3-(6-(4-(2-(pyrrolidin-1-yl)ethoxy)phenyl)pyrazolo[1,5-a]pyrimidin-3-yl)phenyl)ethanol] | 1 | 0.063 | 2.6 | > 10 | > 10 | > 10
CC(O)c1cccc(-c2cnn3cc(-c4ccc(CCN5CCCC5)cc4)cnc23)c1 (stereo not drawn) [Compound 146, 1-(3-(6-(4-(2-(pyrrolidin-1-yl)ethyl)phenyl)pyrazolo[1,5-a]pyrimidin-3-yl)phenyl)ethanol] | 1.4 | 0.22 | 8 | > 10 | > 10 | > 10
CC(O)c1cccc(-c2cnn3cc(-c4ccc(CCN5CCC(O)C5)cc4)cnc23)c1 (stereo not drawn) [Compound 148, 1-(4-(3-(3-(1-hydroxyethyl)phenyl)pyrazolo[1,5-a]pyrimidin-6-yl)phenethyl)pyrrolidin-3-ol] | 0.79 | 0.15 | 6.4 | > 10 | > 10 | > 10
C[C@@H](O)c1cccc(-c2cnn3cc(-c4ccc(OCCN5CCCCC5)cc4)cnc23)c1 [Compound 149, (R)-1-(3-(6-(4-(2-(piperidin-1-yl)ethoxy)phenyl)pyrazolo[1,5-a]pyrimidin-3-yl)phenyl)ethanol] | 4.5 | 0.18 | 6.8 | > 10 | > 10 | > 10
NC(c1cccc(-c2cnn3cc(-c4ccc(OCCN5CCCCC5)cc4)cnc23)c1)C(F)(F)F (stereo not drawn) [Compound 153, 2,2,2-trifluoro-1-(3-(6-(4-(2-(piperidin-1-yl)ethoxy)phenyl)pyrazolo[1,5-a]pyrimidin-3-yl)phenyl)ethanamine] | 1.4 | 0.11 | 4.3 | > 10 | > 10 | > 10
C[C@@H](O)c1cccc(-c2cnn3cc(-c4ccc(CCN5CCC(O)C5)cc4)cnc23)c1 (stereo partly drawn) [Compound 155, 1-(4-(3-(3-((R)-1-hydroxyethyl)phenyl)pyrazolo[1,5-a]pyrimidin-6-yl)phenethyl)pyrrolidin-3-ol] | 0.82 | 0.14 | 7.3 | > 10 | > 10 | > 10
C[C@@H](O)c1cccc(-c2cnn3cc(-c4ccc(CCN5CCCC5)cc4)cnc23)c1 [Compound 156, (R)-1-(3-(6-(4-(2-(pyrrolidin-1-yl)ethyl)phenyl)pyrazolo[1,5-a]pyrimidin-3-yl)phenyl)ethanol] | 0.84 | 0.16 | 6.2 | > 10 | > 10 | > 10
C[C@@H](O)c1cccc(-c2cnn3cc(-c4ccc(CCN5CCC(O)CC5)cc4)cnc23)c1 [Compound 159, (R)-1-(4-(3-(3-(1-hydroxyethyl)phenyl)pyrazolo[1,5-a]pyrimidin-6-yl)phenethyl)piperidin-4-ol] | 1 | 0.18 | 6.1 | > 10 | > 10 | > 10
C[C@@H](O)c1cccc(-c2cnn3cc(-c4ccc(OCCN5CCCC5)cc4)cnc23)c1 [Compound 160, (R)-1-(3-(6-(4-(2-(pyrrolidin-1-yl)ethoxy)phenyl)pyrazolo[1,5-a]pyrimidin-3-yl)phenyl)ethanol] | 1.5 | 0.19 | 3.3 | 8.9 | > 10 | > 10
NC(c1ccc(-c2cnn3cc(-c4ccc(OCCN5CCCC5)cc4)cnc23)c2ccccc12)C(F)(F)F (stereo not drawn) [Compound 162, 2,2,2-trifluoro-1-(4-(6-(4-(2-(pyrrolidin-1-yl)ethoxy)phenyl)pyrazolo[1,5-a]pyrimidin-3-yl)naphthalen-1-yl)ethanamine] | > 10 | 8.1 | > 10 | > 10 | > 10 | > 10
CC(O)c1cccc(-c2cnn3cc(-c4ccc(OC5(CN6CCNCC6)CC5)cc4)cnc23)c1 (stereo not drawn) [Compound 168, 1-(3-(6-(4-(1-(piperazin-1-ylmethyl)cyclopropoxy)phenyl)pyrazolo[1,5-a]pyrimidin-3-yl)phenyl)ethanol] | 0.61 | 0.085 | 1.7 | > 10 | > 10 | > 10
CS(=O)(=O)c1cccc(-c2cnn3cc(-c4ccc(OC5(CN6CCNCC6)CC5)cc4)cnc23)c1 [Compound 169, 3-(3-(methylsulfonyl)phenyl)-6-(4-(1-(piperazin-1-ylmethyl)cyclopropoxy)phenyl)pyrazolo[1,5-a]pyrimidine] | 0.28 | 0.052 | 1.5 | > 10 | > 10 | 5.7

The next lines start with the values.

IC50 [1] [µM] | IC50 [2] [µM] | IC50 [3] [µM] | IC50 [4] [µM] | IC50 [5] [µM] | IC50 [6] [µM] | SMILES
0.47 | 0.17 | > 10 | > 10 | > 10 | > 10 | CC(O)c1cccc(-c2cnn3cc(-c4ccc(CCN5CCOCC5)cc4)cnc23)c1 (stereo not drawn) [Compound 147, 1-(3-(6-(4-(2-morpholinoethyl)phenyl)pyrazolo[1,5-a]pyrimidin-3-yl)phenyl)ethanol]
0.71 | 0.14 | 4.1 | > 10 | > 10 | > 10 | CC(O)c1cccc(-c2cnn3cc(-c4ccc(CCN5CCCC(O)C5)cc4)cnc23)c1 (stereo not drawn) [Compound 150, 1-(4-(3-(3-(1-hydroxyethyl)phenyl)pyrazolo[1,5-a]pyrimidin-6-yl)phenethyl)piperidin-3-ol]
0.82 | 0.11 | 4.3 | > 10 | > 10 | > 10 | CC(O)c1cccc(-c2cnn3cc(-c4ccc(CCN5CCC(O)CC5)cc4)cnc23)c1 (stereo not drawn) [Compound 151, 1-(4-(3-(3-(1-hydroxyethyl)phenyl)pyrazolo[1,5-a]pyrimidin-6-yl)phenethyl)piperidin-4-ol]
0.76 | 0.12 | 5.9 | > 10 | > 10 | > 10 | C[C@@H](O)c1cccc(-c2cnn3cc(-c4ccc(CCN5CCCC(O)C5)cc4)cnc23)c1 (stereo partly drawn) [Compound 157]
2.5 | 0.25 | > 10 | > 10 | > 10 | > 10 | C[C@@H](O)c1cccc(-c2cnn3cc(-c4ccc(CCN5CCOCC5)cc4)cnc23)c1 [Compound 158, (R)-1-(3-(6-(4-(2-morpholinoethyl)phenyl)pyrazolo[1,5-a]pyrimidin-3-yl)phenyl)ethanol]
1.6 | 0.15 | 9.4 | > 10 | > 10 | > 10 | NC(c1cccc(-c2cnn3cc(-c4ccc(OCCN5CCCC5)cc4)cnc23)c1)C(F)(F)F (stereo not drawn) [Compound 161]
